Measurements as given in the Bradley open melting point set (2014).
Where “and” joins values, the source holds several entries; their conditions need not be identical. Identical values can stand only once.

Going from CCCCN [Butylamine] to C#CCCCCCC [1-octyne], the melting point falls from -49 °C to -79 °C.

First: O=[N+]([O-])c1ccc(O)cc1 [p-nitrophenol]
Second: Nc1ccc([N+](=O)[O-])cc1N [4-nitro-o-phenylenediamine]
The melting point of the first is lower: 115 °C for the first, 201 °C for the second.

Going from [2H]OC([2H])([2H])C([2H])([2H])[2H] [(~2~H_5_)Ethan(~2~H)ol] to CCNC(=O)OC(C)(C)C [N-boc-ethylamine], the melting point rises from -114 °C to 40 °C.

First: ClCCl [dichloromethane]
Second: ClC/C=C/c1ccccc1 [cinnamyl chloride]
The melting point of the first is lower: -95 °C for the first, 7 °C for the second.

Compared with Clc1ccccc1I [o-chloroiodobenzene], Oc1ccccc1Br [2-bromophenol] is higher in melting point: 1 °C for the first, 5.6 °C for the second.

First: [O-][I+2]([O-])O [Iodic acid]
Second: [O-][I+3]([O-])([O-])O [periodic acid]
The melting point of the first is lower: 110 °C for the first, 128 °C for the second.

Compared with CCCCCCCCCCCCCCCCCC(=O)OC [methyl stearate], CCCCCCCCCC#N [nonyl_cyanide] is lower in melting point: 40 °C for the first, -15 °C for the second.

Going from OCc1ccccc1 [benzyl_alcohol] to O=C(O)c1ccccc1 [Benzoic Acid], the melting point rises from -15 °C to 122 °C.

Going from CC12CCC(C=C/C1=N\O)C2(C)C (stereo unspecified) [(2E)-N-hydroxy-1,8,8-trimethylbicyclo[3.2.1]oct-3-en-2-imine] to COc1ccc(N)c(C)c1 [4-Methoxy-2-methylaniline], the melting point falls from 146 °C to 13.5 °C.

Compared with O=[N+]([O-])c1cccc(-c2ccccc2)c1 [3-nitrobiphenyl], COC(=O)c1ccc(-c2cccc([N+](=O)[O-])c2)cc1 [methyl 3'-nitrobiphenyl-4-carboxylate] is higher in melting point: 62 °C for the first, 143 °C for the second.

Going from O=C(O)c1nn(Cc2ccc(Cl)cc2Cl)c2ccccc12 [lonidamine] to O=C(O)c1ccc(N2C(=O)C3ON=C(C(=O)c4ccc(Cl)cc4)C3C2=O)cc1 (stereo unspecified), the melting point falls from 207 °C to 144 °C.

First: O=C(O)CCC(=O)C(=O)O [2-oxopentanedioic acid]
Second: OC[C@@H](O)[C@@H](O)[C@H](O)[C@H](O)CO [D-Mannitol]
The melting point of the first is lower: 116 °C for the first, 167 °C for the second.

First: OC[C@@H](O)[C@H]1O[C@@H]2O[C@H](C(Cl)(Cl)Cl)O[C@@H]2[C@H]1O [1,2-O-[(1R)-2,2,2-Trichloroethylidene]-alpha-D-glucofuranose]
Second: CCOC(=O)/C(=N\Nc1ccccc1)C(=O)C(F)(F)F
The melting point of the first is higher: 187 °C for the first, 81 °C for the second.

Compared with O=[N+]([O-])c1ccc(Cl)c(Cl)c1Cl [2,3,4-Trichloronitrobenzene], Nc1cccnc1[N+](=O)[O-] [3-amino-2-nitropyridine] is higher in melting point: 55.5 °C for the first, 192 °C for the second.

Compared with N(=N/c1ccccc1)c2ccccc2 [azobenzene], c1ccc(Oc2ccccc2)cc1 [diphenyl ether] is lower in melting point: 69 °C for the first, 28 °C for the second.

First: C(=C\c1nn2c(COc3ccccc3)nnc2s1)/c1ccccc1
Second: O=C1OC(c2ccccc2)=NC1=Cc1ccccc1F [4-(2-Fluoro-benzylidene)-2-phenyl-4H-oxazol-5-one]
The melting point of the first is lower: 142 °C for the first, 149 °C for the second.

First: CCCC(C)Br (stereo unspecified) [2-bromopentane]
Second: CCOC(=O)c1ccc(CBr)cc1 [ethyl 4-(bromomethyl)benzoate]
The melting point of the first is lower: -96 °C for the first, 31 °C for the second.

First: CCS(=O)(=O)CCn1c([N+](=O)[O-])cnc1C [Tinidazole]
Second: CCOc1ccc(NC(C)=O)cc1 [4'-ethoxyacetanilide]
The melting point of the first is lower: 128 °C for the first, 135 °C for the second.

First: O=C(O)c1ccc(-n2nc(-c3ccccc3O)nc2-c2ccccc2O)cc1 [Deferasirox]
Second: O=C1C(=O)c2ccccc2-c2ccccc21 [Phenanthrene-9,10-dione]
The melting point of the first is lower: 116 °C for the first, 210 °C for the second.

Compared with O=C1CCC(=O)O1 [succinic anhydride], CCC1(c2ccccc2)C(=O)NC(=O)NC1=O [phenobarbital] is higher in melting point: 120 °C for the first, 175 °C for the second.

Going from C1COCCO1 [1,4-dioxane] to COc1ccc(OC)c(C(O)CNC(=O)CN)c1 (stereo unspecified) [Midodrine], the melting point rises from 12 °C to 202 °C.

First: c1ccc2cc3cc4ccccc4cc3cc2c1 [2,3-benzanthracene]
Second: CC(C)c1cccc(C(C)C)c1 [m-diisopropylbenzene]
The melting point of the first is higher: 341 °C for the first, -63 °C for the second.

Compared with Cc1c(C)c(/C=CC(C)=CC=CC(/C)=CC(=O)O)c(C)cc1OC [Acitretin], C=CCc1ccccc1OCC(O)CNC(C)C (stereo unspecified) [alprenolol] is lower in melting point: 229 °C for the first, 109 °C for the second.

Work on O=S(=O)(Cl)c1cc(Cl)cc(Cl)c1 [3,5-dichlorobenzenesulfonyl chloride] yielded a melting point of 32 °C.

With O=C(CO)[C@@]3(O)CC[C@H]2[C@@H]4CC\C1=C\C(=O)\C=C/[C@]1(C)[C@H]4C(=O)C[C@@]23C [prednisone] the melting point was 234 °C (2×) and 237 °C.
For Nc1ccc(S(=O)(=O)Nc2ncccn2)cc1 [sulfadiazine], the melting point was 252 °C and 256 °C and 254 °C.
For Clc1ccc(Cl)cc1 [1,4-dichlorobenzene], the melting point was 53 °C and 55 °C.
For O=[N+]([O-])c1ccc(O)cc1 [4-nitrophenol], the melting point was 112 °C and 113 °C.
